Holding throughout (format): functional, organism-based
Holding throughout (conditions): Mus musculus

Assay [1] relates to P388. Nature of the assay: Median survival time against P388 leukemia in CDF1 mice at a dose of 6 mg/kg administered intraperitoneally; […]. Further details: dose 6 mg/kg.
For assay [2], the system named is P388. Nature of the assay: Number of treated mice to that of control against P388 leukemia in CDF1 mice at a dose of 3 mg/kg administered intraperitoneally; active. Further details: dose 3 mg/kg.
Assay [3] concerns P388. The experiment in a line: Number of treated mice to that of control against P388 leukemia in CDF1 mice at a dose of 6 mg/kg administered intraperitoneally; active. The arrangement: dose 6 mg/kg.
For assay [4], the system named is P388. Nature of the assay: Median survival time against P388 leukemia in CDF1 mice at a dose of 1.5 mg/kg administered intraperitoneally; […]. Further details: dose 1.5 mg/kg.
For assay [5], the system named is P388. The experiment in a line: Median survival time against P388 leukemia in CDF1 mice at a dose of 3 mg/kg administered intraperitoneally; […]. The arrangement: dose 3 mg/kg.
The test system of assay [6] is P388. The experiment in a line: Number of treated mice to that of control against P388 leukemia in CDF1 mice at a dose of 1.5 mg/kg administered intraperitoneally; active. Further details: dose 1.5 mg/kg.

As to CISPLATIN, the MST turned out to be 24.5 in the assay with P388 [1], 15.5 in the assay on P388 [4] and 18.5 with P388 [5]. For the same sequence, the T/C in the assay on P388 [2] came to 188; with P388 [3], 249; with P388 [6], 158.

For the origin of these results see ChEMBL document CHEMBL1123798, “Stereocontrolled syntheses for the six diastereomeric 1,2-dihydroxy-4,5-diaminocyclohexanes: PtII complexes and P-388 antitumor properties” (J Med Chem, 1987).
